# Measurements reported in patent publication US20130317222A1, “SOLID FORMS OF GYRASE INHIBITOR (R)-1-ETHYL-3-[5-[2-(1-HYDROXY-1-METHYL-ETHYL)PYRIMIDIN-5-YL]-7-(TETRAHYDROFURAN-2-YL]-1H-BENZIMIDAZOL-2-YL]UREA” (Vertex Pharmaceuticals Incorporated, priority 2011, published 2013).
# Counter-ions that a name gives are not always drawn.
# How the values were obtained:
# Staphylococcus aureus = experiment: MIC, micro dilution broth method (Protocol 1); type: cell-based
# [1] = system: Staphylococcus epidermidis; experiment: MIC, micro dilution broth method (Protocol 1); type: cell-based; details: Staphlococcus epidermidis, 35 isolates tested
# Enterococcus faecalis = experiment: MIC, micro dilution broth method (Protocol 1); type: cell-based
# Enterococcus faecium = experiment: MIC, micro dilution broth method (Protocol 1); type: cell-based
# Streptococcus pneumoniae = experiment: MIC, micro dilution broth method (Protocol 1); type: cell-based
# [2] = system: β-haemolytic streptococci (Groups A, B, C and G); experiment: MIC, micro dilution broth method (Protocol 1); type: cell-based; details: 28 isolates tested
# Bacillus cereus = experiment: MIC, micro dilution broth method (Protocol 1); type: cell-based
# Bacillus subtilis = experiment: MIC, micro dilution broth method (Protocol 1); type: cell-based
# Haemophilus influenzae = experiment: MIC against Gram negatives, microdilution broth method (Protocol 2); type: cell-based
# Source text: The specific protocols used were as follows:
# Drug Dilutions, Inoculation, MIC Determination: • 1. […] All MICs were done in duplicate. • 6.
# Clostridium difficile = experiment: MIC, agar dilution method (Protocol 3); type: cell-based
# Clostridium perfringens = experiment: microbe, parasite or virus in culture; type: cell-based
# Bacteroides fragilis = experiment: MIC, agar dilution method (Protocol 3); type: cell-based; details: 25 isolates tested
# [3] = system: Bacteroides and Parabacter spp.; experiment: MIC, agar dilution method (Protocol 3); type: cell-based; details: 26 isolates tested
# Fusobacterium spp. = experiment: MIC, agar dilution method (Protocol 3); type: cell-based; details: 16 isolates tested
# Peptostreptococcus spp. = experiment: MIC, agar dilution method (Protocol 3); type: cell-based; details: 11 isolates tested
# Prevotella spp. = experiment: MIC, agar dilution method (Protocol 3); type: cell-based; details: 13 isolates tested
# Neisseria gonorrhoeae = experiment: MIC, agar dilution method (Protocol 3); type: cell-based
# Method: (§1) Plate Pouring: • 1. Prepared 100× drug stocks of each test compound as described in Table 1A. Used a 15 mL centrifuge tube, added 100 uL of each drug stock to 10 mL of molten agar (cooled to 55° C. in water bath). Mixed by inverting tube 2-3× then pour into individually labeled 60×15 mm Petri dish. • 2. […] Poured 4 drug free plates: 2 as positive control, 2 as aerobic control. • 4. Allowed plates to dry. Used same day or stored overnight at RT or stored up to 3 days at 4° C. • 5. Plates were labeled accordingly for drug concentration and strain placement. Plate Inoculation (Performed in Biosafety Cabinet): • 1. Streaked each strain onto individual agar plates as described above. Incubated for required time and environmental condition (i.e. anaerobic, microaerophilic, etc). • 2. Used direct colony suspension method to suspend loopfuls of freshly streaked cells into 4 mL 0.9% […] and vortexed. • 3. Adjusted suspension to O.D.600 0.05 (5×10e7 cfu/mL). Vortexed to mix. • 4. Transferred 0.2 mL of adjusted, mixed cultures to a 96 well plate. When ≦5 strains were tested, all strains were lined together in a single row. When testing >5 strains, transfered strains into plate with no more that 5 strains in a single row. This was necessary to fit on the small plates. • 5. […] The former and latter served as growth and inoculation controls. Incubated one plate from each set of drug-free controls under required atmospheric conditions with MIC plates and one set aerobically to test for contamination with aerobic bacteria. Aerobic culture was negative for growth when working with strict anaerobe or microaerophilic strain. Some growth was visible with N. gonorrhoeae. • 6. Allowed inoculum to dry (for as short a time as necessary), then placed upside down in GasPak with appropriate number of sachets and incubate. • 7. Neisseria spp. were incubated at 37° C. in a5% CO2 environment for 24 h. MIC Determination: Examined the test plates after the correct incubation time and read the MIC endpoint at the concentration where a marked reduction occurred in the appearance of growth on the test plate as compared to that of growth on the positive control plates. [table]
# Neisseria meningitidis = experiment: MIC, agar dilution method (Protocol 3); type: cell-based; details: 12 isolates tested
# Method: as §1
# Mycobacterium avium = experiment: MIC determination procedure for Mycobacterium species (Protocol 4); type: cell-based
# Nocardia caviae = experiment: as above; type: cell-based; details: Nocardia caviae 2497
# N. asteroids = experiment: as above; type: cell-based; details: N. asteroids 2039
# N. nova = experiment: as above; type: cell-based; details: N. nova 10
# M. tuberculosis = experiment: as above; type: cell-based
# [4] = system: Mycobacterium tuberculosis; experiment: Mycobacterium tuberculosis Serum Shift MIC Assay (Protocol 5); type: cell-based
# Source text: Protocol #5. Protocol for Mycobacterium tuberculosis Serum Shift MIC Assay
# Media Prep: • 1. […] It was important that all media and supplements were sterilized prior to MICs. • 2. Prepared all media below and inoculated as described in next section. Tested all compounds against Mtb using each media. • a. 7H9+0.2% glycerol+10% OADC (“standard” MIC media). • b. 7H9+0.2% glycerol+2 g/L dextrose+0.85 g/L NaCl+0.003 g/L catalase (0% FBS). • c. 2×7H9+0.2% glycerol+2 g/L dextrose+0.85 g/L NaCl+0.003 g/L catalase combined with equal volume Fetal Bovine Serum (50% FBS).
# Inoculum Prep: • 1. […] Typically plates were two to three weeks of age when used for this assay due to the slow growth of this organism in culture. • 2. Vortexed well, then sonicated in water bath for 30 sec providing a suspension of ˜10^8 cells/ml. […] Prepared inoculum in each of the three media formulations by diluting the BBL Prompt suspension 1/200 (for example: transferred 0.2 ml of cells to 40 ml of medium) to obtain a starting cell density of ˜10^6 cells/ml. • 4.
# Drug Dilutions, Inoculation, MIC Determination: • 1. […]
# After 24 hours the fluorescence of each well was measured at Excitation 492 nm, Emission 595 nm.
# Percent inhibition by a given compound was calculated as follows: Percent inhibition=100−([well fluorescence-average background fluorescence]/[DMSO control−average background fluorescence]×100).
# Moraxella catarrhalis = experiment: MIC against Gram negatives, microdilution broth method (Protocol 2)
# Escherichia coli = experiment: as above
# Klebsiella pneumoniae = experiment: as above
# Acinetobacter baumannii = experiment: as above
# Pseudomonas aeruginosa = experiment: as above
# Proteus mirabilis = experiment: as above
# Enterobacter cloacae = experiment: as above
# [5] = Staphylococcus aureus, 67 isolates tested
# [6] = Enterococcus faecalis, 34 isolates tested
# [7] = Streptococcus pneumoniae, 67 isolates tested
# [8] = Haemophilus influenzae, 55 isolates tested
# [9] = Neisseria gonorrhoeae, 13 isolates tested
# [10] = M. tuberculosis Erdman ATCC 35801
smiles,measurement,setting,value
"CCNC(=O)Nc1nc2cc(-c3cnc(C(C)(C)O)nc3)cc([C@H]3CCCO3)c2[nH]1 [Compound 13, methanesulfonic acid salt of 1-ethyl-3-[5-[2-(1-hydroxy-1-methyl-ethyl)pyrimidin-5-yl]-7-[(2R)-tetrahydrofuran-2-yl]-1H-benzimidazol-2-yl]urea]",MIC,Staphylococcus aureus; Staphylococcus aureus ATCC 29213,0.13 µg/mL
same,MIC,Staphylococcus aureus; Staphylococcus aureus ATCC 29213 GyrB T173I,1.29 µg/mL
same,MIC,Staphylococcus aureus; Staphylococcus aureus ATCC 29213 with Human Serum,0.31 µg/mL
same,MIC,Staphylococcus aureus; Staphylococcus aureus ATCC 29213 with Mouse Serum,2 µg/mL
same,MIC,Staphylococcus aureus; Staphylococcus aureus ATCC 29213 with Rat Serum,0.53 µg/mL
same,MIC90,Staphylococcus aureus; [5],0.25 µg/mL
same,MIC Range,Staphylococcus aureus; [5],0.03 to 0.5 µg/mL
same,MIC Range,[1],0.03 to 0.25 µg/mL
same,MIC90,[1]; Staphylococcus epidermidis,0.12 µg/mL
same,MIC,"Enterococcus faecalis; Enterococcus faecalis ATCC 29212, with Laked Horse Blood",0.081 µg/mL
same,MIC90,Enterococcus faecalis; [6],0.25 µg/mL
same,MIC Range,Enterococcus faecalis; [6],0.03 to 0.25 µg/mL
same,MIC90,Enterococcus faecium; Enterococcus faecium,0.5 µg/mL
same,MIC,"Enterococcus faecium; Enterococcus faecium ATCC 49624, Protocol 1",0.25 µg/mL
same,MIC,"Enterococcus faecium; Enterococcus faecium ATCC 49624 with Laked Horse Blood, Protocol 1",0.39 µg/mL
same,MIC Range,"Enterococcus faecium; Enterococcus faecium, 33 isolates tested, Protocol 1",0.12 to 0.5 µg/mL
same,MIC,"Streptococcus pneumoniae; Streptococcus pneumoniae ATCC 10015, with Laked Horse Blood",0.022 µg/mL
same,MIC90,Streptococcus pneumoniae; [7],0.06 µg/mL
same,MIC Range,Streptococcus pneumoniae; [7],0.015 to 0.06 µg/mL
same,MIC90,[2],0.25 µg/mL
same,MIC Range,[2],0.06 to 0.5 µg/mL
same,MIC,Bacillus cereus; Bacillus cereus ATCC 10987,0.5 µg/mL
same,MIC,Bacillus cereus; Bacillus cereus ATCC 14579,0.5 µg/mL
same,MIC,Bacillus subtilis; Bacillus subtilis (168) ATCC 6051,> 8 µg/mL
same,MIC,Bacillus subtilis; Bacillus subtilis ATCC 6638,> 8 µg/mL
same,MIC,Haemophilus influenzae; Haemophilus influenzae (Rd1 KW20) ATCC 51907,2.5 µg/mL
same,MIC,Haemophilus influenzae; Haemophilus influenzae ATCC 49247,1 µg/mL
same,MIC,Haemophilus influenzae; Haemophilus influenzae Rd0894 (AcrA-),0.14 µg/mL
same,MIC90,Haemophilus influenzae; [8],2 µg/mL
same,MIC Range,Haemophilus influenzae; [8],0.25 to 8 µg/mL
same,MIC90,"Clostridium difficile; Clostridioides difficile, Clostridium difficile, 16 isolates tested",1 µg/mL
same,MIC,Clostridium difficile; Clostridium difficile ATCC BAA-1382,1 µg/mL
same,MIC Range,"Clostridium difficile; Clostridium difficile, 16 isolates tested",0.5 to 16 µg/mL
same,MIC90,Clostridium perfringens,0.5 µg/mL
same,MIC90,Bacteroides fragilis,> 16 µg/mL
same,MIC90,[3],> 16 µg/mL
same,MIC90,Fusobacterium spp.,2 µg/mL
same,MIC Range,Fusobacterium spp.,1 to 4 µg/mL
same,MIC90,Peptostreptococcus spp.,> 16 µg/mL
same,MIC90,Prevotella spp.,> 16 µg/mL
same,MIC,Neisseria gonorrhoeae; Neisseria gonorrhoeae ATCC 35541,1.3 µg/mL
same,MIC,Neisseria gonorrhoeae; Neisseria gonorrhoeae ATCC 49226,2.3 µg/mL
same,MIC90,Neisseria gonorrhoeae; [9],1 µg/mL
same,MIC Range,Neisseria gonorrhoeae; [9],0.5 to 1 µg/mL
same,MIC90,Neisseria meningitidis,0.12 µg/mL
same,MIC Range,Neisseria meningitidis,0.015 to 0.25 µg/mL
same,MIC,Mycobacterium avium; M. avium 3404.4,0.94 µg/mL
same,MIC,Mycobacterium avium; M. avium Far,0.94 µg/mL
same,MIC,Mycobacterium avium; Mycobacterium avium 103,0.47 µg/mL
same,MIC,Nocardia caviae,2 µg/mL
same,MIC,N. asteroids,8 µg/mL
same,MIC,N. nova,8 µg/mL
same,MIC,M. tuberculosis; [10],0.25 µg/mL
same,MIC,M. tuberculosis; M. tuberculosis H37Rv ATCC 25618,0.37 µg/mL
same,MIC,[4]; [10],0.045 µg/mL
same,MIC,[4]; M. tuberculosis Erdman ATCC 35801 with Mouse Serum,2 µg/mL
same,MIC90,Moraxella catarrhalis,0.12 µg/mL
same,MIC Range,"Moraxella catarrhalis; 26 isolates tested, Protocol 2",0.015 to 0.12 µg/mL
same,MIC90,Escherichia coli,> 8 µg/mL
same,MIC90,Klebsiella pneumoniae,> 8 µg/mL
same,MIC90,Acinetobacter baumannii,> 8 µg/mL
same,MIC90,Pseudomonas aeruginosa,> 8 µg/mL
same,MIC90,Proteus mirabilis,> 8 µg/mL
same,MIC90,Enterobacter cloacae,> 8 µg/mL
